According to patent publication US9464055B2, “Quinoline derivatives useful as CB-1 inverse agonists” (JANSSEN PHARMACEUTICA NV, priority 2014, dated 2016):

Biological target: T1, Human CB2R (Cannabinoid receptor 2) (Homo sapiens, UniProt P34972)
T1 construct: host or cells: HEK-293
Test: CB-2 in vitro cAMP (HTRF) functional assay
Type: cell-based
Settings: mean where tested more than once
Text: CB1 and CB2 receptors are Gi-coupled GPCR. Activation of CB1 and CB2 receptors results in a decrease in cAMP production. An inverse agonist of the CB1 or CB2 receptor results in the opposite effect, an increase of cAMP production. The principle of this assay is based on HTRF® technology (Homogeneous Time-Resolved Fluorescence). The method is a competitive immunoassay between native cAMP produced by cells and the cAMP labeled with the fluorophore d2. The tracer binding is quantified by a Mab anti-cAMP labeled with Eu3+ TBP-NHS Cryptate (supplied as part of the assay kit). The specific signal (i.e. energy transfer) is inversely proportional to the concentration of cAMP in the standard or sample.
Human CB1R (Cannabinoid receptor 1) was stably transfected in HEK-293 cells (DiscoveRx, cat: 93-0200C1). Human CB2R (Cannabinoid receptor 2) was stably transfected in HEK-293 cells (DiscoveRx, cat: 93-0201C1). Cell cultures were maintained in media: DMEM (Invitrogen Cat#12430-054) supplemented with 10% HI FBS (Invitrogen Cat#16140-071), 1% L-glutamine (Invitrogen Cat#25030-081), 0.2 mg/ml Hygromycin B (Invitrogen Cat#10687-010), 600 μg/mL G418 (Invitrogen Cat#10131-035), and 1× Penn/Strep (Invitrogen 15140-122). After cell expansion, aliquots were cryo-stored in media containing 5% DMSO (Pierce Cat#20684).
One day prior to experiments media was warmed to 37° C. and the cryo-stored cells were thawed in a 37° C. water bath. The cells were then added to media (10× volume) and the mixture was centrifuged at 1000 RPM for 5 min. The supernate was removed and the cells were re-suspended in media. A sample of the cell suspension was evaluated on a Cedex XS automated cell counter (Innovatis Systems) to determine viable cells/ml. Additional media was added to the cells to achieve a final cell density of 4E5 cells/mL. The cells were then plated into 384 well PDL white solid bottom plates (Greiner, Cat#781945) at 20 μL per well using a Multidrop (Thermo Scientific). Cells were removed from Row P (location of cAMP standards). Two columns of cells were plated into a clear bottom 384 well PDL coated plate (Greiner, Cat#781944) to view confluence the day of the assay. The cell plates were lidded and stored for 15 minutes in a hood, then transferred to an incubator (37° C., 5% CO2, 95% humidity) overnight.
DMSO was added to all wells of 384 well V bottom polystyrene plate (Greiner, Cat#781280) except to columns 1 and 13, rows O and P and wells M13-M23 and N13-N23. Test compounds (60 μL, 10 mM) were added to Column 1 and 13 (A1 through N1 and A13 through L13). Test compounds were serially diluted 1/3 by transferring and mixing 20 μl sample with 40 μL DMSO.
DMSO (40 μL) was added to wells of 384 well V bottom polystyrene plate: O2 through O11, M14 through M23, N14 through N23, and O14 through O23. AM630 (also known as [6-iodo-2-methyl-1-[2-(4-morpholinyl)ethyl]-1H-indol-3-yl](4-methoxyphenyl)-methanone, Cayman Chemical, Cat#10006974) (60 μL, 10 mM) was added to O1; and 1-(2,4-dichlorophenyl)-7-[(4-fluorophenyl)methylene]-4,5,6,7-tetrahydro-N-1-piperidinyl-1H-indazole-3-carboxamide (60 μL, 10 mM) was added to N13. The control was serially diluted 1/3 by transferring and mixing 20 μl sample with 40 μL DMSO. This process resulted 11 doses per control, 10 mM to […].
Cells plated the day prior to the assay in clear bottom plates were viewed on an inverse microscope to ensure confluency in the range of 60-75%. […]

T1 sequence (P34972 whole entry): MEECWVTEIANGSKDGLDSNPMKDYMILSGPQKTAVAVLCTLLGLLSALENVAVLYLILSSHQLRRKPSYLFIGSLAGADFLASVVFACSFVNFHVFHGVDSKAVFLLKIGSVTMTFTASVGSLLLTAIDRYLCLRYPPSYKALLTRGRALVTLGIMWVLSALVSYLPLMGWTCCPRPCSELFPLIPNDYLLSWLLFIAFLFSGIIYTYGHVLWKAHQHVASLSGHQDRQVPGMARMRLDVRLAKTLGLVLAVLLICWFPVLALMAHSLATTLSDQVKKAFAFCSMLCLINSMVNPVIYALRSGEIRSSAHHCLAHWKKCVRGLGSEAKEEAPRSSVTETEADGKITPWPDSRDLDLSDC

Q: Which EC50 does the source give for `O=c1cc(NCc2ccc(C(F)(F)F)cc2)c2cc(C(c3ccc(Cl)cc3)c3ccc(Cl)cc3)ccc2[nH]1` [Compound 58, 6-[Bis(4-chlorophenyl)methyl]-4-{[4-(trifluoromethyl)benzyl]amino}quinolin-2(1H)-one] here?
A: The EC50 was > 10 µM.

Q: `O=c1cc(Nc2cccc(C(F)(F)F)c2)c2cc(C(c3ccc(Cl)cc3)c3ccc(Cl)cc3)ccc2[nH]1` [Compound 75, 6-[Bis(4-chlorophenyl)methyl]-4-{[3-(trifluoromethyl)phenyl]amino}quinolin-2(1H)-one] was tested. Which EC50 did it give?
A: The EC50 was > 10 µM.

Q: `O=c1cc(NCc2ccc(C(F)(F)F)cn2)c2cc(C(c3ccc(Cl)cc3)c3ccc(Cl)cc3)ccc2[nH]1` [Compound 78, 6-[Bis(4-chlorophenyl)methyl]-4-({[5-(trifluoromethyl)pyridin-2-yl]methyl}amino)quinolin-2(1H)-one] was tested. Which EC50 did it give?
A: The EC50 was > 10 µM.

Q: For `O=c1cc(Nc2ccc(Cl)c(F)c2)c2cc(C(c3ccc(Cl)cc3)c3ccc(Cl)cc3)ccc2[nH]1` [Compound 83, 6-[Bis(4-chlorophenyl)methyl]-4-[(4-chloro-3-fluorophenyl)amino]quinolin-2(1H)-one], which EC50 is on record?
A: Its EC50 is > 10 µM.

Q: Which EC50 does the source give for `COC(=O)c1ccc(Nc2cc(=O)[nH]c3ccc(C(c4ccc(Cl)cc4)c4ccc(Cl)cc4)cc23)cc1` [Compound 85, Methyl 4-({6-[bis(4-chlorophenyl)methyl]-2-oxo-1,2-dihydroquinolin-4-yl}amino)benzoate] here?
A: Its EC50 is > 10 µM.

Q: For `NC(=O)c1ccc(Nc2cc(=O)[nH]c3ccc(C(c4ccc(Cl)cc4)c4ccc(Cl)cc4)cc23)cc1` [Compound 87, 4-({6-[Bis(4-chlorophenyl)methyl]-2-oxo-1,2-dihydroquinolin-4-yl}amino)benzamide], which EC50 is on record?
A: The EC50 was > 10 µM.

Q: Which EC50 does the source give for `COCCOc1ccc(Nc2cc(=O)[nH]c3ccc(C(c4ccc(Cl)cc4)c4ccc(Cl)cc4)cc23)cc1` [Compound 94, 6-[Bis(4-chlorophenyl)methyl]-4-{[4-(2-methoxyethoxy)phenyl]amino}quinolin-2(1H)-one] here?
A: The EC50 was > 10 µM.

Q: How did the EC50 turn out when `O=C(O)CC(=O)N1CCC(Nc2cc(=O)[nH]c3ccc(C(c4ccc(Cl)cc4)c4ccc(Cl)cc4)cc23)CC1` [Compound 96, 3-[4-({6-[Bis(4-chlorophenyl)methyl]-2-oxo-1,2-dihydroquinolin-4-yl}amino)piperidin-1-yl]-3-oxopropanoic acid] was run?
A: The EC50 was > 10 µM.

Q: `O=C(O)CCC(=O)N1CCC(Nc2cc(=O)[nH]c3ccc(C(c4ccc(Cl)cc4)c4ccc(Cl)cc4)cc23)CC1` [Compound 98, 4-(4-((6-(bis(4-chlorophenyl)methyl)-2-oxo-1,2-dihydroquinolin-4-yl)amino)piperidin-1-yl)-4-oxobutanoic acid] was tested. Which EC50 did it give?
A: Its EC50 is > 10 µM.

Q: Which EC50 does the source give for `CCOC(=O)CS(=O)(=O)N1CCC(Nc2cc(=O)[nH]c3ccc(C(c4ccc(Cl)cc4)c4ccc(Cl)cc4)cc23)CC1` [Compound 102, ethyl 2-((4-((6-(bis(4-chlorophenyl)methyl)-2-oxo-1,2-dihydroquinolin-4-yl)amino)piperidin-1-yl)sulfonyl)acetate] here?
A: Its EC50 is > 10 µM.

Q: Which EC50 does the source give for `CCOC(=O)CCCNc1cc(C(c2ccc(Cl)cc2)c2ccc(Cl)cc2)cc2c(NC3CCN(S(=O)(=O)C(F)(F)F)CC3)cc(=O)[nH]c12` [Compound 104, Ethyl 4-({6-[bis(4-chlorophenyl)methyl]-2-oxo-4-({1-[(trifluoromethyl)sulfonyl]piperidin-4-yl}amino)-1,2-dihydroquinolin-8-yl}amino)butanoate] here?
A: Its EC50 is > 10 µM.

Q: For `CC(C)(C)OC(=O)COc1ccc(Nc2cc(=O)[nH]c3ccc(C(c4ccc(Cl)cc4)c4ccc(Cl)cc4)cc23)cc1` [Compound 105, tert-butyl 2-(4-((6-(bis(4-chlorophenyl)methyl)-2-oxo-1,2-dihydroquinolin-4-yl)amino)phenoxy)acetate], which EC50 is on record?
A: Its EC50 is > 10 µM.

Q: Which EC50 does the source give for `O=C(O)COc1ccc(Nc2cc(=O)[nH]c3ccc(C(c4ccc(Cl)cc4)c4ccc(Cl)cc4)cc23)cc1` [Compound 109, 2-(4-((6-(bis(4-chlorophenyl)methyl)-2-oxo-1,2-dihydroquinolin-4-yl)amino)phenoxy)acetic acid] here?
A: The EC50 was > 10 µM.
